Laboratory results as given in patent EP2623098B1, “Amide Amino Acid Esters of Nonsteroidal Anti-Inflammatory Drugs (NSAIDs) as Potent Inhibitors of Tumor Cell Growth” (King Saud University, priority 2012, dated 2013).

System: HT-29 human colon adenocarcinoma cells
Assay: Tumor cell growth inhibition assay (Cell Titer Glo, cell viability), HT-29
Format: cell-based
Conditions: HT-29 cells, 72 hours treatment
Protocol: The human colon adenocarcinoma cell lines were obtained from ATCC and grown under standard cell culture conditions in RPMI 1640 medium containing 5% fetal bovine serum (FBS) at 37°C in a humidified atmosphere with 5% CO2.
Tissue culture treated 96-well microtiter plates were seeded at a density of 5,000 cells/well. For growth inhibition assays, cells were incubated at 37°C for 18-24 hours, treated with the specified compound or vehicle (0.1% DMSO final) control, and incubated at 37°C an additional 72 hours. The effect of treatment on cell viability was determined using the luminescent Cell Titer Glo Assay (Promega).
HT-29 human colon adenocarcinoma cells were treated with compounds of the invention and grown under standard cell culture conditions. […]

SMILES	IC50 [µM]
CCOC(=O)CCNC(=O)C(C)c1ccc2cc(OC)ccc2c1 (centres unmarked) [IV]	123
COC(=O)CC(NC(=O)C(C)c1ccc2cc(OC)ccc2c1)C(=O)OC (centres unmarked) [IX]	121
COC(=O)C(CC(C)C)NC(=O)C(C)c1ccc2cc(OC)ccc2c1 (centres unmarked) [VII]	34.5
CCOC(=O)C(CCSC)NC(=O)C(C)c1ccc2cc(OC)ccc2c1 (centres unmarked) [XII]	49.3
CCOC(=O)C(NC(=O)C(C)c1ccc2cc(OC)ccc2c1)C(C)C (centres unmarked) [XI]	29.4
